Experimental data from ChEMBL document CHEMBL3638512, “Piperazine compounds” (2013).

Target: T1, Cathepsin K (Homo sapiens, UniProt P43235)
T1 sequence (P43235 whole entry): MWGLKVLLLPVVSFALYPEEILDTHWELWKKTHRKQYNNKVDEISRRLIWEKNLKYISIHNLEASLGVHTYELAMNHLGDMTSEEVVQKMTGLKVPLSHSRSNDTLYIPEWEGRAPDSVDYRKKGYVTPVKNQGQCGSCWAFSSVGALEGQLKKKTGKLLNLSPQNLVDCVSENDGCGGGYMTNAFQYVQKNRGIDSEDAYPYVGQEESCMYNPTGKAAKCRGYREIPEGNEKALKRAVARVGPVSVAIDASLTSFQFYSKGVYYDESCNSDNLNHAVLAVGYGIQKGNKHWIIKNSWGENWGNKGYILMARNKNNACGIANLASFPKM
Test: In Vitro Inhibition Assay: In vitro cathepsin inhibition assay.

C[C@H]1CN(C(=O)[C@@H](NC(=O)c2ccc(N3CCN(C)CC3)cc2)C(C)(C)C)[C@@H]2C(=O)CO[C@@H]21
Ki: 1.1 nM
